# According to article PMC11997881, “Comprehensive Characterization of Bruton’s Tyrosine Kinase Inhibitor Specificity, Potency, and Biological Effects: Insights into Covalent and Noncovalent Mechanistic Signatures” (ACS Pharmacology & Translational Science, 2025):
# Tests used:
# ITK = biological target: T1, ITK (Homo sapiens, UniProt Q08881); assay: scanMAX binding POC, ITK; settings: 1 μM
# T1 sequence (Q08881 1-620): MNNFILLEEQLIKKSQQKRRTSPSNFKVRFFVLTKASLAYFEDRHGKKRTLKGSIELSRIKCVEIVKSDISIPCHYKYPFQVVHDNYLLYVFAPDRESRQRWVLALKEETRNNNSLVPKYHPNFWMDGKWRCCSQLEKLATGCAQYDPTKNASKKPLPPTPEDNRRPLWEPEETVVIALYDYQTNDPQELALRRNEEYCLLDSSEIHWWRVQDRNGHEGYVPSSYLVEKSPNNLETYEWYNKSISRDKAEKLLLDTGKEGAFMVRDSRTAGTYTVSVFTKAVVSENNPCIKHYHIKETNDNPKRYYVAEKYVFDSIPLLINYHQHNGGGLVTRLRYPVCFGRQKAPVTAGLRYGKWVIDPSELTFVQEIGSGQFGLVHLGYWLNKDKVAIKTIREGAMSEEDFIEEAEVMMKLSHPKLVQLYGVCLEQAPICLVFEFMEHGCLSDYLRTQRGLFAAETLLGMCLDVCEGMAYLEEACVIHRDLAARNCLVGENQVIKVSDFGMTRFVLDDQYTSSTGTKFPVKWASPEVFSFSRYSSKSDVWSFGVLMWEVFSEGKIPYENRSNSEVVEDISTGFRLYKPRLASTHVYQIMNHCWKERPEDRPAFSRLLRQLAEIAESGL
# Description: (§1) Comprehensive Characterization of Bruton’s Tyrosine Kinase Inhibitor Specificity, Potency, and
# (§2) Biological Effects: Insights into Covalent and Non-Covalent Mechanistic Signatures
# (§3) Antonia C. Darragh1, Andrew M. Hanna1, Justin H. Lipner2, Alastair J. King2, Nicole B. Servant1, Mirza Jahic1*
# (§4) *To whom correspondence should be addressed: Mirza Jahic, e-mail address: Mirza.Jahic@discovery.eurofinsus.com
# (§5) Supporting Table S1. Comparison of BTK inhibitor specificity to TEC family members. TEC family members are
# (§6) Burton’s tyrosine kinase (BTK), tyrosine kinase expressed in hepatocellular carcinoma (TEC), bone marrow-
# (§7) expressed kinase (BMX/ETK), and T cell-expressed kinase (TXK/RLK), and interleukin-2-inducible T cell kinase
# (§8) A zero POC signifies that the compound
# BLK = BLK (Homo sapiens, UniProt P51451); assay: scanMAX binding POC, BLK; settings: 1 μM
# JNK2 (MAPK9) = JNK2 (MAPK9) (Homo sapiens, UniProt P45984); assay: scanMAX binding POC, JNK2; settings: 1 μM
# Description: (§9) The compounds were diluted directly into the assays such that the final concentration of DMSO was 0.9%. No enzyme purification steps were performed on the protein extracts before adding them to the reaction mixture, and the protein extracts were diluted 10,000-fold in the final reaction mixture (the final DNA-tagged enzyme concentration was less than 0.1 nM). Binding assay mixtures were incubated at 25 °C with shaking for 1 h. […] The concentration of wild-type or mutant BTK in the eluates was then determined using quantitative PCR. […] Each assay’s affinity ligand concentration on the magnetic beads has been optimized to ensure that the true thermodynamic Kd values for competitor molecules were measured, as described in detail previously99.
# (§10) Comparison of BTK inhibitor specificity to c-Jun N-terminal kinases (JNK1-3/MAPKP8-10).
# (§11) a The percent of control (POC) is the percent of kinase that was competed off its control ligand relative to the positive and negative controls at the screening concentration56. A zero POC signifies that the compound
# BTK [1] = biological target: T2, BTK (Homo sapiens, UniProt Q06187); assay: scanMAX binding POC, BTK; settings: 1 μM; zero POC = competition comparable to positive control
# T2 construct: host or cells: transiently transfected HEK293 cells
# Description: as §1, §2, §3, §4, §5, §6, §7, §8
# ERBB3 = ERBB3 (Homo sapiens, UniProt P21860); assay: scanMAX binding POC, ERBB3; settings: 1 μM
# JNK3 (MAPK10) = JNK3 (MAPK10) (Homo sapiens, UniProt P53779); assay: scanMAX binding POC, JNK3; settings: 1 μM
# Description: as §9, §10, §11
# TXK = biological target: T3, TXK (Homo sapiens, UniProt P42681); assay: scanMAX binding POC, TXK; settings: 1 μM
# T3 sequence (P42681 1-527): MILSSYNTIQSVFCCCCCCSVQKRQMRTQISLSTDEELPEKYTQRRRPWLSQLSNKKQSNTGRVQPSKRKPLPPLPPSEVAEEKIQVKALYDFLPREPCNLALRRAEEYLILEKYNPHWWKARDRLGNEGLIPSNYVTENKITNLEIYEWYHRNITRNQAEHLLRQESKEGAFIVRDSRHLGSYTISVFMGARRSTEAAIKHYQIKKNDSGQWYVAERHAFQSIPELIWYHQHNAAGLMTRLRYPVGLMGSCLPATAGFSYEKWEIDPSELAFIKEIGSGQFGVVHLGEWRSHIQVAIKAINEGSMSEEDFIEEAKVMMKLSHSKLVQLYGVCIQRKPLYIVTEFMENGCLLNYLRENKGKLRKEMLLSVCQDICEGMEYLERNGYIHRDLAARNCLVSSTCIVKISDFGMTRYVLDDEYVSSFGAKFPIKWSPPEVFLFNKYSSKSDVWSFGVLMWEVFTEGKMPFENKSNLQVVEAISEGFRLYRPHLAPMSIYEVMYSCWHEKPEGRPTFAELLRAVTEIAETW
# Description: as §1, §2, §3, §4, §5, §6, §7, §8
# BTK [2] = settings: cited from earlier work
# [3] = test system: 468 kinases/kinase domains; settings: scanMAX at 1 μM, POC <35
# Description: The compounds were diluted directly into the assays such that the final concentration of DMSO was 0.9%. No enzyme purification steps were performed on the protein extracts before adding them to the reaction mixture, and the protein extracts were diluted 10,000-fold in the final reaction mixture (the final DNA-tagged enzyme concentration was less than 0.1 nM). Binding assay mixtures were incubated at 25 °C with shaking for 1 h. […] The concentration of wild-type or mutant BTK in the eluates was then determined using quantitative PCR.
# MKK7 = biological target: T4, MKK7 (Homo sapiens, UniProt O14733); assay: scanMAX binding POC, MKK7; settings: 1 μM
# T4 sequence (O14733 1-419): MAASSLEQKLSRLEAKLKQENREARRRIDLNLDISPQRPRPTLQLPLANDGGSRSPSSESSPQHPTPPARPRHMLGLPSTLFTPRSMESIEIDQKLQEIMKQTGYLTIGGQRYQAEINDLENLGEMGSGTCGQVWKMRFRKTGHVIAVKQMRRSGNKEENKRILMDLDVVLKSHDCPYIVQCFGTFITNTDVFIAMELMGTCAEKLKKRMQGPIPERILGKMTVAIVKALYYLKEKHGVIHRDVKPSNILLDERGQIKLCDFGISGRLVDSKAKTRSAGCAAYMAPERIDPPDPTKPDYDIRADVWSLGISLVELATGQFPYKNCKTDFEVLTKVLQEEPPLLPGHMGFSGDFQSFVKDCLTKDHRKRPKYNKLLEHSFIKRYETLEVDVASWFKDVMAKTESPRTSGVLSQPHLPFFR
# JNK1 (MAPK8) = JNK1 (MAPK8) (Homo sapiens, UniProt P45983); assay: scanMAX binding POC, JNK1; settings: 1 μM
# Description: as §9, §10, §11
# [4] = biological target: T5, JAK3 (JH1 catalytic domain) (Homo sapiens, UniProt P52333); assay: scanMAX binding POC, JAK3; settings: 1 μM
# T5 construct: The JAK3 POC is for its JH1 catalytic domain
# ERBB2 = ERBB2 (Homo sapiens, UniProt P04626); assay: scanMAX binding POC, ERBB2; settings: 1 μM
# TEC = biological target: T6, TEC (Homo sapiens, UniProt P42680); assay: scanMAX binding POC, TEC; settings: 1 μM
# T6 sequence (P42680 1-631): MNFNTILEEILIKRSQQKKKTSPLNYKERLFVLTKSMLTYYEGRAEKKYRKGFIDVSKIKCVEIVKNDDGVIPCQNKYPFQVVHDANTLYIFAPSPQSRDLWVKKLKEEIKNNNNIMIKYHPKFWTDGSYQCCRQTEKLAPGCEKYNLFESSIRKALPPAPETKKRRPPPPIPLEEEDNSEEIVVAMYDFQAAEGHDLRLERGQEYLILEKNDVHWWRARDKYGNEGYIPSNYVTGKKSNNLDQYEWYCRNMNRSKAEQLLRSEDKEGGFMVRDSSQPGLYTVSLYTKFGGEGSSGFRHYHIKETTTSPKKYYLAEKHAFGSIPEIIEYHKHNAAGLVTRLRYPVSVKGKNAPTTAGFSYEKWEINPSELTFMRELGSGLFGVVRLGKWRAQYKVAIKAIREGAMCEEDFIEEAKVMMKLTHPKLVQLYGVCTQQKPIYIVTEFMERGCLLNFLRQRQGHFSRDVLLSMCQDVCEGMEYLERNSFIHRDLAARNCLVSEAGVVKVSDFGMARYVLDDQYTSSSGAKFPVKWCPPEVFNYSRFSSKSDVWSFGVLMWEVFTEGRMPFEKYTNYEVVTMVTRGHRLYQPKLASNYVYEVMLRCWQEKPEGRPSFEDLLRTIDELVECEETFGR
# Description: as §1, §2, §3, §4, §5, §6, §7, §8
# ERBB4 = ERBB4 (Homo sapiens, UniProt Q15303); assay: scanMAX binding POC, ERBB4; settings: 1 μM
# EGFR = EGFR (Homo sapiens, UniProt P00533); assay: scanMAX binding POC, EGFR; settings: 1 μM
# BMX = biological target: T7, BMX (Homo sapiens, UniProt P51813); assay: scanMAX binding POC, BMX; settings: 1 μM
# T7 sequence (P51813 1-675): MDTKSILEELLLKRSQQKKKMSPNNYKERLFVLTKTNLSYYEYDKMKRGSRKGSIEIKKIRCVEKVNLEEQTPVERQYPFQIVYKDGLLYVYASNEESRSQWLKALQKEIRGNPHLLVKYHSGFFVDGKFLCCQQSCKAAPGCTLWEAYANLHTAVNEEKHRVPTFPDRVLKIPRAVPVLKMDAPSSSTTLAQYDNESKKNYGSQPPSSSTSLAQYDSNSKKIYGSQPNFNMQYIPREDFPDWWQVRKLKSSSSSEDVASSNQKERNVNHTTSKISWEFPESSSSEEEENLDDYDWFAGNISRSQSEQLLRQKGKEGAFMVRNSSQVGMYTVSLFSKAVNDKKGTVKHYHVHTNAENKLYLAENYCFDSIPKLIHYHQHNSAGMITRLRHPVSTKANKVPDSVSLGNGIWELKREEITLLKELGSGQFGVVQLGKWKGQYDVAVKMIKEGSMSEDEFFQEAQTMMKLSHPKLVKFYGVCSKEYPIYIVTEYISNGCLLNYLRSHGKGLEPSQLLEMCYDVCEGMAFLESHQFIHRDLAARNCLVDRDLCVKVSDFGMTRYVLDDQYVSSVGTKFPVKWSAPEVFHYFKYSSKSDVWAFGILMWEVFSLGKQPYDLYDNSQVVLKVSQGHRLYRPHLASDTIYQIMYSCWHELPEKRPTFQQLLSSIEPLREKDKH
# Description: as §1, §2, §3, §4, §5, §6, §7, §8
# JNK1 (MAPK8), sequence (P45983 whole entry, the tested form may be a part): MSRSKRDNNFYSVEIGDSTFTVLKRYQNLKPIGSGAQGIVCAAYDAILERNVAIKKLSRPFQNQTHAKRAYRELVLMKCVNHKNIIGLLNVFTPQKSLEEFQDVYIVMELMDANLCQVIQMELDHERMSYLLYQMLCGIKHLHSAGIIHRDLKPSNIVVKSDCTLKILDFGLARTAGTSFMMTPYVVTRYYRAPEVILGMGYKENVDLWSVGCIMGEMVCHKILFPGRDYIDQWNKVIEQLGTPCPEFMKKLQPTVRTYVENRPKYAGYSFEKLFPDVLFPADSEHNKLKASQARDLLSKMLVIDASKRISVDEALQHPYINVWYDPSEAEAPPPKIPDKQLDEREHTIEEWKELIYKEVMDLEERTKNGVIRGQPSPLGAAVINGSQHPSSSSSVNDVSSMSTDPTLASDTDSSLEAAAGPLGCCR
# EGFR, sequence (P00533 25-1210): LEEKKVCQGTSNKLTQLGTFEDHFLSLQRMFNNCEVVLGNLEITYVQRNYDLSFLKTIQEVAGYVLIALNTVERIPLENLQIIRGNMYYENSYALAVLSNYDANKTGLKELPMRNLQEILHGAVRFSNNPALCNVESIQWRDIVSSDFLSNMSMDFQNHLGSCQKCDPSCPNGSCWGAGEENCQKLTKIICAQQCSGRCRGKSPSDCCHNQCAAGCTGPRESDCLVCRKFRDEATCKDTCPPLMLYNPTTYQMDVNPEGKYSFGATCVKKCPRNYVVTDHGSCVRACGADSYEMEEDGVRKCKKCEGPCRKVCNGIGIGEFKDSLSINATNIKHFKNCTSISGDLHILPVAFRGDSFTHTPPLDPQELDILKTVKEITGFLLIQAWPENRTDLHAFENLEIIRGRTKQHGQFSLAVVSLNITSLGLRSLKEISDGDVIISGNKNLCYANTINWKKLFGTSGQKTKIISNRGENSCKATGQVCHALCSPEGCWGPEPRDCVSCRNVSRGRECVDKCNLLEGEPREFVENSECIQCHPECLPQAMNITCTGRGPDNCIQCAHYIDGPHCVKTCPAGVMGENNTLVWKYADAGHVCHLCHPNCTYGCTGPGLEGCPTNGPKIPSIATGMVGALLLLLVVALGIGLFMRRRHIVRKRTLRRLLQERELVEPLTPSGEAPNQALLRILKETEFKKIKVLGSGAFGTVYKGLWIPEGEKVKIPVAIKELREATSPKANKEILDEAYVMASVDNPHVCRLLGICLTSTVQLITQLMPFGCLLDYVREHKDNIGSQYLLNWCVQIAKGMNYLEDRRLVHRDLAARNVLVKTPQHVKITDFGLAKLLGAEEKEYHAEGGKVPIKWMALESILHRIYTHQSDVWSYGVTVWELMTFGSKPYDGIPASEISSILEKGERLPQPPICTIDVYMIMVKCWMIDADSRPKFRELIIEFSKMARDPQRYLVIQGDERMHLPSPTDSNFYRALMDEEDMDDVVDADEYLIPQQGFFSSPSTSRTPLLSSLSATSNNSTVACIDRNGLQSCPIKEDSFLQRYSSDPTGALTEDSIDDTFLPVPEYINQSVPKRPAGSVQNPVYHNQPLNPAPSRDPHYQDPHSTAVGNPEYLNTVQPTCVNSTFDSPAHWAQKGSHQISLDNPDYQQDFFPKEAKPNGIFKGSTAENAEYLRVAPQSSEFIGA
# JNK3 (MAPK10), sequence (P53779 whole entry): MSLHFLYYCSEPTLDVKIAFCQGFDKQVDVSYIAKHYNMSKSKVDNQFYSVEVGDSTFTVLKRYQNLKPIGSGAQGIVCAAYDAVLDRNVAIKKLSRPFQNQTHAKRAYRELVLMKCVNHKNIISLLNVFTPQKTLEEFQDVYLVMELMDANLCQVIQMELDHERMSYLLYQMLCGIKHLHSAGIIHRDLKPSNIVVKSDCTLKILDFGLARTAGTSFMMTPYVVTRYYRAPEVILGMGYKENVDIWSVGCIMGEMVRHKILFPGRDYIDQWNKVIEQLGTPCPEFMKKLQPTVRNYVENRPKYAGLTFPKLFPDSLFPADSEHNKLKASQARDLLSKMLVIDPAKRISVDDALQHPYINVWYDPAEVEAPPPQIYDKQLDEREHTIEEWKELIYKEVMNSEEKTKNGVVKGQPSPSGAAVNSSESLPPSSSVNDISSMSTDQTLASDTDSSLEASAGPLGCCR
# T5 sequence (P52333 822-1111 limits assumed): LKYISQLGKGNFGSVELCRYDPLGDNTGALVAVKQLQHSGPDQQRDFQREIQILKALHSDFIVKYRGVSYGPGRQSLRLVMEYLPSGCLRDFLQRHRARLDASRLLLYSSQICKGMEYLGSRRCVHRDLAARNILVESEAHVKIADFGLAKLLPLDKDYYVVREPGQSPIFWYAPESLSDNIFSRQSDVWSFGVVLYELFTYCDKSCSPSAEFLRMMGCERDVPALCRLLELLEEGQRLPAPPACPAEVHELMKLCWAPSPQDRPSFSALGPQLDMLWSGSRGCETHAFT
# ERBB4, sequence (Q15303 26-1308): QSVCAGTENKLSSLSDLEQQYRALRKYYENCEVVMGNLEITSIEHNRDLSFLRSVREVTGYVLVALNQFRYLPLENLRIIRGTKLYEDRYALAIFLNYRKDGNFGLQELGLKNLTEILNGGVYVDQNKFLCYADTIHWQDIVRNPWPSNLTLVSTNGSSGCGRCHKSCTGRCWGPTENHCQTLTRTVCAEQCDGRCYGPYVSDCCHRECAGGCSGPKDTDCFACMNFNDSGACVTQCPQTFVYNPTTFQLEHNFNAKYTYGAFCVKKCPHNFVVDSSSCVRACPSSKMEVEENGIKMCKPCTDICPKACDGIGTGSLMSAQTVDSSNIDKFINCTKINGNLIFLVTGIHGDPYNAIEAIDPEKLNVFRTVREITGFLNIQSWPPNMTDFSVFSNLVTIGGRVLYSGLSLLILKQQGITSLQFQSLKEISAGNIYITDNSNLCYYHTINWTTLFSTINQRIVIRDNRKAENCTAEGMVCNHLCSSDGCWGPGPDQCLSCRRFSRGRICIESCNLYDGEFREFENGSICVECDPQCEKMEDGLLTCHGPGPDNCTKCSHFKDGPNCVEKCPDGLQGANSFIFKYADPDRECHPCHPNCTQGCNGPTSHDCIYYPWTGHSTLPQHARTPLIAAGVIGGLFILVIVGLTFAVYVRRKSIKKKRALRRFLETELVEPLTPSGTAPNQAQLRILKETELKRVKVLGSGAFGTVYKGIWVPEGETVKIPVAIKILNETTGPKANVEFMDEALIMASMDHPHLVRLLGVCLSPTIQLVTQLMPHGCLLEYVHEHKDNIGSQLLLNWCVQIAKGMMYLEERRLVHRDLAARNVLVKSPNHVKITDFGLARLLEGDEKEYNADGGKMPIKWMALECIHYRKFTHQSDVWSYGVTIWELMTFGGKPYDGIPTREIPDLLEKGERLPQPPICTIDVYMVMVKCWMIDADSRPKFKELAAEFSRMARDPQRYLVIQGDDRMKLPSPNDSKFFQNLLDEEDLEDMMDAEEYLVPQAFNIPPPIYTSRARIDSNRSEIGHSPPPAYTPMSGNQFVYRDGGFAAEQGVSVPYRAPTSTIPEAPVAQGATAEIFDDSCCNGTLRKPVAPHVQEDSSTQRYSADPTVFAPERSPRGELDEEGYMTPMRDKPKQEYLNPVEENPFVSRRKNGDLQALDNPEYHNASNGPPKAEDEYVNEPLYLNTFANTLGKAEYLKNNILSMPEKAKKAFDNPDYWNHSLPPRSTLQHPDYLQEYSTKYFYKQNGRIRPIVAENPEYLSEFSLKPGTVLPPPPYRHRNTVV
# ERBB2, sequence (P04626 23-1255): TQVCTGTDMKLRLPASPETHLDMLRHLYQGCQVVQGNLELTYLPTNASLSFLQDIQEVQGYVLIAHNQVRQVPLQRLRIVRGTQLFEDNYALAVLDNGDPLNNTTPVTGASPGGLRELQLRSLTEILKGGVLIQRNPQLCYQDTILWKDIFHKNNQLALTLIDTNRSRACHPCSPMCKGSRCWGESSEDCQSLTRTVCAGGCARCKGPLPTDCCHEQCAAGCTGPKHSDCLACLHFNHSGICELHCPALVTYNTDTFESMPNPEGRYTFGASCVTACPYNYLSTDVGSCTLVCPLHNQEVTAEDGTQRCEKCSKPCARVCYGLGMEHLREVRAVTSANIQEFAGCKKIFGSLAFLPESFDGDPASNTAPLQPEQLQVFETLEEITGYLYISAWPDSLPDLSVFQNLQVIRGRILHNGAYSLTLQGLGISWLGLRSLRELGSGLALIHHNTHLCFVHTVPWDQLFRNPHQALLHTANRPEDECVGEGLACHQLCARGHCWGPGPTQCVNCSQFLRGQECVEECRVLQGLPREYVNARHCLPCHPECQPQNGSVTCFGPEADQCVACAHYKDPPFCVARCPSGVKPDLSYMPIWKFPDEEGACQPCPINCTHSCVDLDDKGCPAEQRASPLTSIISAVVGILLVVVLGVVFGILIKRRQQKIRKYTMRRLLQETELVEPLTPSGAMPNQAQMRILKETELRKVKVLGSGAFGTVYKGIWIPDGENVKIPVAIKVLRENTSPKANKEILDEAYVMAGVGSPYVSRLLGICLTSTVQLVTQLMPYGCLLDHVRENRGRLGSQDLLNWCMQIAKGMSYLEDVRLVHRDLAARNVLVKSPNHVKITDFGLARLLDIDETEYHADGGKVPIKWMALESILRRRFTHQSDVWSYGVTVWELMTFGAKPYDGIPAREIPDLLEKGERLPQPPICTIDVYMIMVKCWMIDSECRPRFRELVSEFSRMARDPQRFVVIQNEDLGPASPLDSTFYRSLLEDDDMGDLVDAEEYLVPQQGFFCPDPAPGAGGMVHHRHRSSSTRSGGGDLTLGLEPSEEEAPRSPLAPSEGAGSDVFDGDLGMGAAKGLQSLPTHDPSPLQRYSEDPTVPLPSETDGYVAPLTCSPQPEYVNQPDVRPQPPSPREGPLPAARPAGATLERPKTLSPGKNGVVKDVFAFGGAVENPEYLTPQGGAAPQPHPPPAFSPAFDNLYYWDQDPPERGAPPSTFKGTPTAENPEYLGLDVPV
compound,measurement,setting,value
C=CC(=O)N(C)CCOc1c(N)ncnc1-c1cc(F)cc(NC(=O)c2ccc(C3CC3)cc2F)c1C [Remibrutinib],ITK binding POC,ITK,97% of control
same,BLK binding POC,BLK,100% of control
same,JNK2 (MAPK9) POC,JNK2 (MAPK9),99% of control
same,BTK binding POC,BTK [1],0.15% of control
same,ERBB3 binding POC,ERBB3,100% of control
same,JNK3 (MAPK10) POC,JNK3 (MAPK10),100% of control
same,TXK binding POC,TXK,97% of control
same,IC50,BTK [2],1.3 nM
same,off-target hits,[3],one
same,MKK7 binding POC,MKK7,100% of control
same,JNK1 (MAPK8) POC,JNK1 (MAPK8),93% of control
same,JAK3 binding POC,[4],100% of control
same,ERBB2 binding POC,ERBB2,100% of control
same,TEC binding POC,TEC,20% of control
same,ERBB4 binding POC,ERBB4,100% of control
same,EGFR binding POC,EGFR,99% of control
C=CC(=O)N1CCC(CNc2ncnc(N)c2-c2ccc(Oc3ccccc3)cc2)CC1 [Evobrutinib],JNK2 (MAPK9) POC,JNK2 (MAPK9),100% of control
same,ERBB3 binding POC,ERBB3,97% of control
same,JNK3 (MAPK10) POC,JNK3 (MAPK10),100% of control
same,TXK binding POC,TXK,23% of control
same,MKK7 binding POC,MKK7,100% of control
same,JNK1 (MAPK8) POC,JNK1 (MAPK8),95% of control
same,JAK3 binding POC,[4],100% of control
same,ERBB2 binding POC,ERBB2,91% of control
same,TEC binding POC,TEC,10% of control
same,ERBB4 binding POC,ERBB4,32% of control
same,EGFR binding POC,EGFR,88% of control
CC#CC(=O)N[C@H]1CCCN(c2c(F)cc(C(N)=O)c3[nH]c(C)c(C)c23)C1 [Branebrutinib],ITK binding POC,ITK,17% of control
same,BLK binding POC,BLK,3.2% of control
same,JNK2 (MAPK9) POC,JNK2 (MAPK9),89% of control
same,BTK binding POC,BTK [1],0% of control
same,ERBB3 binding POC,ERBB3,75% of control
same,JNK3 (MAPK10) POC,JNK3 (MAPK10),89% of control
same,TXK binding POC,TXK,2% of control
same,MKK7 binding POC,MKK7,100% of control
same,JNK1 (MAPK8) POC,JNK1 (MAPK8),82% of control
same,JAK3 binding POC,[4],48% of control
same,ERBB2 binding POC,ERBB2,100% of control
same,TEC binding POC,TEC,7.8% of control
same,ERBB4 binding POC,ERBB4,75% of control
same,EGFR binding POC,EGFR,77% of control
C=CC(=O)N1CCC[C@@H](n2c(=O)n(-c3ccc(Oc4ccccc4)cc3)c3c(N)nccc32)C1 [Tolebrutinib],ITK binding POC,ITK,67% of control
same,BMX binding POC,BMX,11% of control
same,BLK binding POC,BLK,0.05% of control
same,JNK2 (MAPK9) POC,JNK2 (MAPK9),83% of control
same,ERBB3 binding POC,ERBB3,0.8% of control
same,JNK3 (MAPK10) POC,JNK3 (MAPK10),90% of control
same,TXK binding POC,TXK,1.1% of control
same,MKK7 binding POC,MKK7,19% of control
same,MKK7 binding POC,MKK7; listed as tolebrutinib,weak hit
same,JNK1 (MAPK8) POC,JNK1 (MAPK8),96% of control
same,JAK3 binding POC,[4],36% of control
same,ERBB2 binding POC,ERBB2,0% of control
